Experimental data from a compilation of properties of binary mixtures (doi:10.1007/s10973-015-5205-9).

Assay: xn = mol fraction of the nth substance listed
Settings: 100 kPa

CCOCCO + CC[n+]1ccn(C)c1.F[B-](F)(F)F
speed of sound [m/s]
Settings	298.15 K	308.15 K	318.15 K	328.15 K
x1 = 0.0466	1614.9	1591.3	1568	1545.2
x1 = 0.0981	1607.6	1583.8	1560.2	1537.4
x1 = 0.1487	–	1575	1551.2	1528.2
x1 = 0.1973	1589.7	1565.3	–	1517.9
x1 = 0.3049	1564.7	1539.7	–	1490.7
x1 = 0.4112	1535	1509.2	1483.5	1458.2
x1 = 0.4953	1508.4	–	1455.3	1428.8
x1 = 0.5705	1482.4	1455	1427.6	–
x1 = 0.696	1435	1406	1376.9	1347.7
x1 = 0.7952	1394.4	1363.9	–	1302.7
x1 = 0.8411	1374.8	1343.6	1311.9	–
x1 = 0.8698	1362.4	–	1298.3	1267.2
x1 = 0.9487	1327.3	1294	1259.9	1228.2
x1 = 1	1304	1269.5	1234.1	1202.2

CC[n+]1ccn(C)c1.F[B-](F)(F)F + CCOCCO
x2 = 0
Settings	speed of sound [m/s]
298.15 K	1620.3
318.15 K	1573.8
328.15 K	1550.9
